For assay [1], the target named is T1, human enzyme NAMPT (full length) (Homo sapiens, UniProt P43490).
T1 construct: human enzyme NAMPT (full length)
As to the kind of experiment: NMN fluorescence biochemical assay (stimulation of NMN synthesis by NAMPT). Particulars: for EC50: concentration giving half-maximal activation, read-out: Enzymatic EC50; for Enzymatic Emax: fold change of maximal activation compared to DMSO. In outline: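 Full-length human NAMPT (100 nM) was preincubated 15 min at 37 °C with compound in 50 mM Tris-HCl pH 7.5, 10 mM MgCl2, 2 mM DTT, then reacted 1 h at 37 °C with 50 μM NAM, 100 μM PRPP, 4 mM ATP (stated solution concentrations). NMN was derivatised with acetophenone/KOH then formic acid and read at Ex/Em 382/445 nm; EC50 and Emax (fold over DMSO) reported.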

Assay [2] has as its system endogenous NAMPT in U2OS cells. Nature of the assay: Cellular NAD+ modulation assay (NAD/NADH-Glo, U2OS cells). The class given is cell-based. Particulars: Homo sapiens; for maximal fold induction: read-out: Cellular Emax. In outline:
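Endogenous NAMPT stimulation in U2OS cells treated with compound dilution series for 24 h at 37 °C. Cells lysed with DTAB base, acid-treated 15 min at 60 °C, neutralized, NAD+ read by NAD/NADH-Glo luminescence after 40 min at room temperature. EC50 and Emax (fold over DMSO) derived.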

[3] abbreviates: NMN synthesis by purified human NAMPT (100 nM).
The mark [4] stands for this setting: 24 hours incubation with compound.
Where [5] appears, read: NMN fluorescence assay, purified human NAMPT 100 nM.
[6] abbreviates: 24 hours incubation, cellular NAD+.

Where two headings read alike, the source gives them in different places.

T1 sequence (P43490 whole entry): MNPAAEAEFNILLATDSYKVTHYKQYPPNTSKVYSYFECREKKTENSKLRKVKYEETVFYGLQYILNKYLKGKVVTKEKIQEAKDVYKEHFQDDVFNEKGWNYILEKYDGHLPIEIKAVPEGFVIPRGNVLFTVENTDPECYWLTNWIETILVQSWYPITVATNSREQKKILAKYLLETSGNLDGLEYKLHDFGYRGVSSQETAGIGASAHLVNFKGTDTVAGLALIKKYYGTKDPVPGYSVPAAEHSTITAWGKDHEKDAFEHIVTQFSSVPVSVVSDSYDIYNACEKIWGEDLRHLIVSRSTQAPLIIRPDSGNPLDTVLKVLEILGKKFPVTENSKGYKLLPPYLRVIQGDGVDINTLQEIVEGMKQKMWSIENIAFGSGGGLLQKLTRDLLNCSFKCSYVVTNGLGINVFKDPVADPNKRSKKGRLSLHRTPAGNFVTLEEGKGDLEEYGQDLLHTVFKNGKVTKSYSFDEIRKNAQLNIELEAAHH

Regarding `N#Cc1nccc(Cl)c1CC1c2ccccc2C(=O)N1Cc1ccc2[nH]c(=O)oc2c1` (stereo not shown) [Compound 212, 4-chloro-3-((3-oxo-2-((2-oxo-2,3-dihydrobenzo[d]oxazol-6-yl)methyl)isoindolin-1-yl)methyl)picolinonitrile], the EC50 in assay [1] (setting [3]) and in assay [2] (setting [4]) was less than 500 nM in each case. Also, the “Enzymatic Emax” value in assay [1] is given as “A (A>3)”. The maximal fold induction in assay [2] (setting [4]) is more than 1.5.

In the case of `Cn1ncc(Cl)c1CC1c2ccccc2C(C)(C)N1CC1CC(C(N)=O)C1` (stereo not shown) [Compound 607, 3-((3-((4-chloro-1-methyl-1H-pyrazol-5-yl)methyl)-1,1-dimethylisoindolin-2-yl)methyl)cyclobutane-1-carboxamide], the values for the EC50 in assay [1] (setting [5]) and in assay [2] (setting [6]) were not below 5000 nM and 5000 to 50000 nM, respectively. For the same compound, the “Enzymatic Emax” value in assay [1] is given as “C (2≥C)”. Further, in assay [2] (setting [6]), the maximal fold induction fell in the range of 1.2 to 1.5.

For the compound `Cc1ncnc(C#N)c1CC1c2ccccc2C(=O)N1Cc1ccc2[nH]nnc2c1` (stereo not shown) [Compound 384, 5-((2-((1H-benzo[d][1,2,3]triazol-5-yl)methyl)-3-oxoisoindolin-1-yl)methyl)-6-methylpyrimidine-4-carbonitrile], the EC50 in assay [1] (setting [5]) is less than 500 nM. Moreover, in assay [1], the “Enzymatic Emax” value was “B (3≥B>2)”. For the same compound, in assay [2] (setting [6]), the EC50 is less than 500 nM and the maximal fold induction is more than 1.5.

For the compound `Cn1ncc(Cl)c1CC1c2cc(N3CCOCC3)ccc2C(=O)N1CC1CC2(CNC(=O)O2)C1` (stereo not shown) [Compound 463, 2-((3-((4-chloro-1-methyl-1H-pyrazol-5-yl)methyl)-5-morpholino-1-oxoisoindolin-2-yl)methyl)-5-oxa-7-azaspiro[3.4]octan-6-one], in assay [1] (setting [5]), the EC50 lay within 500 to 5000 nM. Besides, the “Enzymatic Emax” value in assay [1] is given as “B (3≥B>2)”. Besides, in assay [2] (setting [6]), the EC50 was less than 500 nM and the maximal fold induction was more than 1.5.

With `CC1c2ccccc2C(=O)N1Cc1ccc2[nH]c(=O)oc2c1` (stereo not shown) [Compound 54, 6-((1-methyl-3-oxoisoindolin-2-yl)methyl)benzo[d]oxazol-2(3H)-one], in assay [1] (setting [3]), the EC50 was not below 5000 nM. Further, the “Enzymatic Emax” value in assay [1] is “A (A>3)”. For the same compound, in assay [2] (setting [4]), the EC50 was 500 to 5000 nM and the maximal fold induction was more than 1.5.

On to `Cn1ncc(Cl)c1CC1c2cc(OC(F)F)ccc2C(=O)N1CC1CC2(CNC(=O)O2)C1` (stereo not shown) [Compound 541, 2-((3-((4-chloro-1-methyl-1H-pyrazol-5-yl)methyl)-5-(difluoromethoxy)-1-oxoisoindolin-2-yl)methyl)-5-oxa-7-azaspiro[3.4]octan-6-one], for which the EC50 in assay [1] (setting [5]) lay within 500 to 5000 nM. For the same compound, in assay [1], the “Enzymatic Emax” value is “B (3≥B>2)”. Also, in assay [2] (setting [6]), the EC50 was less than 500 nM and the maximal fold induction is more than 1.5.

As for `Cn1ncc(Cl)c1CC1c2c(Cl)cccc2C(=O)N1Cc1ccc2[nH]nnc2c1` (stereo not shown) [Compound 339, 2-((1H-benzo[d][1,2,3]triazol-5-yl)methyl)-4-chloro-3-((4-chloro-1-methyl-1H-pyrazol-5-yl)methyl)isoindolin-1-one], the EC50 in assay [1] (setting [5]) lay within 500 to 5000 nM. For the same compound, the “Enzymatic Emax” value in assay [1] is given as “A (A>3)”. In assay [2] (setting [6]), the EC50 is 500 to 5000 nM and the maximal fold induction is more than 1.5.

On to `O=C1c2ccc(N3CCCC3)cc2C(=O)N1Cc1ccc(O)cc1` [Compound 36, 2-(4-hydroxybenzyl)-5-(pyrrolidin-1-yl)isoindoline-1,3-dione], for which the EC50 in assay [1] (setting [3]) is 500 to 5000 nM. In addition, the “Enzymatic Emax” value in assay [1] is “A (A>3)”. For the same compound, in assay [2] (setting [4]), the EC50 lay in the range of 500 to 5000 nM and the maximal fold induction lay in the range of 1.2 to 1.5.

For the compound `CC(C)(O)Cn1cc(Cl)c(CC2c3ccccc3C(=O)N2Cc2ccc3[nH]nnc3c2)n1` (stereo not shown) [Compound 411, 2-((1H-benzo[d][1,2,3]triazol-5-yl)methyl)-3-((4-chloro-1-(2-hydroxy-2-methylpropyl)-1H-pyrazol-3-yl)methyl)isoindolin-1-one], the concentration for a half-maximal effect (EC50) in assay [1] (setting [5]) is less than 500 nM. Further, the “Enzymatic Emax” value in assay [1] is “B (3≥B>2)”. Also, in assay [2] (setting [6]), the EC50 is less than 500 nM and the maximal fold induction was more than 1.5.

Take `N#Cc1ccncc1CC1c2ccccc2C(=O)N1Cc1ccc2[nH]c(=O)oc2c1` (stereo not shown) [Compound 203, 3-((3-oxo-2-((2-oxo-2,3-dihydrobenzo[d]oxazol-6-yl)methyl)isoindolin-1-yl)methyl) isonicotinonitrile]: in assay [1] (setting [3]), the EC50 fell in the range of 500 to 5000 nM. Further, the “Enzymatic Emax” value in assay [1] is given as “A (A>3)”. Moreover, in assay [2] (setting [4]), the EC50 is less than 500 nM and the maximal fold induction is more than 1.5.

As to `O=C1c2ccc(Br)cc2C(=O)N1Cc1ccc(O)cc1` [Compound 16, 5-bromo-2-(4-hydroxybenzyl)isoindoline-1,3-dione], the concentration giving a half-maximal response (EC50) in assay [1] (setting [3]) is not below 5000 nM. The “Enzymatic Emax” value in assay [1] is listed as “A (A>3)”. Moreover, in assay [2] (setting [4]), the EC50 is 500 to 5000 nM and the maximal fold induction is not above 1.2.

For the compound `Cn1ncc(Cl)c1CC1c2ccccc2C(=O)N1CC#Cc1cn[nH]c1` (stereo not shown) [Compound 453, 2-(3-(1H-pyrazol-4-yl)prop-2-yn-1-yl)-3-((4-chloro-1-methyl-1H-pyrazol-5-yl)methyl)isoindolin-1-one], the EC50 in assay [1] (setting [5]) is less than 500 nM. In addition, the “Enzymatic Emax” value in assay [1] is reported as “B (3≥B>2)”. Moreover, in assay [2] (setting [6]), the EC50 is less than 500 nM and the maximal fold induction was more than 1.5.

On to `O=C1c2cccnc2CN1Cc1ccc(O)cc1` [Compound 39, 6-(4-hydroxybenzyl)-6,7-dihydro-5H-pyrrolo[3,4-b]pyridin-5-one], for which the EC50 in assay [1] (setting [3]) is not below 5000 nM; in assay [2] (setting [4]) it was 5000 to 50000 nM. The “Enzymatic Emax” value in assay [1] was “B (3≥B>2)”. Further, the maximal fold induction in assay [2] (setting [4]) lay in the range of 1.2 to 1.5.

For `Cn1ncc(Cl)c1CC1c2ccccc2S(=O)(=O)N1CC1CC2(CNC(=O)O2)C1` (stereo not shown) [Compound 540, 2-((3-((4-chloro-1-methyl-1H-pyrazol-5-yl)methyl)-1,1-dioxidobenzo[d]isothiazol-2(3H)-yl)methyl)-5-oxa-7-azaspiro[3.4]octan-6-one], in assay [1] (setting [5]), the EC50 is less than 500 nM. The “Enzymatic Emax” value in assay [1] is recorded as “B (3≥B>2)”. In addition, in assay [2] (setting [6]), the EC50 is less than 500 nM and the maximal fold induction was more than 1.5.

As for `Cc1c(C#N)cccc1CC1c2ccccc2C(=O)N1Cc1ccc2[nH]c(=O)oc2c1` (stereo not shown) [Compound 174, 2-methyl-3-((3-oxo-2-((2-oxo-2,3-dihydrobenzo[d]oxazol-6-yl)methyl)isoindolin-1-yl)methyl)benzonitrile], the results for the EC50 in assay [1] (setting [3]) and in assay [2] (setting [4]) were less than 500 nM and 500 to 5000 nM, respectively. In addition, the “Enzymatic Emax” value in assay [1] is “B (3≥B>2)”. For the same compound, in assay [2] (setting [4]), the maximal fold induction is more than 1.5.

As for `CN(C)c1nn(C)c(CC2c3ccccc3C(=O)N2Cc2ccc3[nH]nnc3c2)c1Cl` (stereo not shown) [Compound 420, 2-((1H-benzo[d][1,2,3]triazol-5-yl)methyl)-3-((4-chloro-3-(dimethylamino)-1-methyl-1H-pyrazol-5-yl)methyl)isoindolin-1-one], the EC50 in assay [1] (setting [5]) and in assay [2] (setting [6]) was less than 500 nM each time. Also, the “Enzymatic Emax” value in assay [1] was “B (3≥B>2)”. Moreover, in assay [2] (setting [6]), the maximal fold induction was more than 1.5.

Take `Cn1ncc(Cl)c1CC1c2ccccc2C(C)(C)N1Cc1ccc2[nH]c(=O)oc2c1` (stereo not shown) [Compound 613, 6-((3-((4-chloro-1-methyl-1H-pyrazol-5-yl)methyl)-1,1-dimethylisoindolin-2-yl)methyl)benzo[d]oxazol-2(3H)-one]: in assay [1] (setting [5]), the EC50 is less than 500 nM. Also, the “Enzymatic Emax” value in assay [1] is “A (A>3)”. Further, in assay [2] (setting [6]), the EC50 lay in the range of 500 to 5000 nM and the maximal fold induction lay within 1.2 to 1.5.

Take `CNC(=O)Nc1ccc(CN2Cc3ccccc3C2=O)cc1` [Compound 105, 1-methyl-3-(4-((1-oxoisoindolin-2-yl)methyl)phenyl)urea]: in assay [1] (setting [3]), the EC50 was not below 5000 nM. In addition, the “Enzymatic Emax” value in assay [1] is “B (3≥B>2)”. Also, in assay [2] (setting [4]), the EC50 lay within 500 to 5000 nM and the maximal fold induction is more than 1.5.

In the case of `Cc1ccnc(C(N)=O)c1CC1c2ccccc2C(=O)N1Cc1ccc2[nH]nnc2c1` (stereo not shown) [Compound 444, 3-((2-((1H-benzo[d][1,2,3]triazol-5-yl)methyl)-3-oxoisoindolin-1-yl)methyl)-4-methylpicolinamide], in assay [1] (setting [5]), the EC50 lay in the range of 500 to 5000 nM. In assay [1], the “Enzymatic Emax” value was “A (A>3)”. Moreover, in assay [2] (setting [6]), the EC50 lay within 500 to 5000 nM and the maximal fold induction was more than 1.5.

Take `Cc1ccnc(C#N)c1CC1c2cc(C3CC3)ccc2C(=O)N1Cc1ccc2[nH]nnc2c1` (stereo not shown) [Compound 360, 3-((2-((1H-benzo[d][1,2,3]triazol-5-yl)methyl)-6-cyclopropyl-3-oxoisoindolin-1-yl)methyl)-4-methylpicolinonitrile]: in assay [1] (setting [5]), the EC50 was less than 500 nM. Moreover, the “Enzymatic Emax” value in assay [1] is “B (3≥B>2)”. In addition, in assay [2] (setting [6]), the EC50 was less than 500 nM and the maximal fold induction was more than 1.5.

Regarding `COc1cc(CN2C(=O)c3ccccc3C2Cc2c(Cl)cnn2C)on1` (stereo not shown) [Compound 593, 3-((4-chloro-1-methyl-1H-pyrazol-5-yl)methyl)-2-((3-methoxyisoxazol-5-yl)methyl)isoindolin-1-one], the EC50 in assay [1] (setting [5]) is not below 5000 nM. Besides, in assay [1], the “Enzymatic Emax” value is listed as “B (3≥B>2)”. In addition, in assay [2] (setting [6]), the EC50 lay in the range of 500 to 5000 nM and the maximal fold induction lay within 1.2 to 1.5.

Turning to `COc1ccc(CN2C(=O)c3ccccc3C2Cc2c(Cl)ccc(=O)n2C)cc1` (stereo not shown) [Compound 589, 3-((3-chloro-1-methyl-6-oxo-1,6-dihydropyridin-2-yl)methyl)-2-(4-methoxybenzyl)isoindolin-1-one], the figures for the EC50 in assay [1] (setting [5]) and in assay [2] (setting [6]) were 500 to 5000 nM and less than 500 nM, respectively. Besides, in assay [1], the “Enzymatic Emax” value is “A (A>3)”. In addition, the maximal fold induction in assay [2] (setting [6]) was more than 1.5.
